Assay results as given in US20240122922A1, “Methods Of Treating Cancer With Transmembrane Protein 16F (TMEM16F) Inhibitors” (Institute For Cancer Research d/b/a The Research Institute …, priority 2022, published 2024).
“Also recorded” adds a separate entry of the source.

Tests used:
[1] = test system: KPCN349 cells co-cultured with CAFs; assay: Trogocytosis assay in vitro by flow cytometry (CAF membrane uptake by PDAC cells); assay type: cell-based, murine; details: 100 nM, CAFs pre-treated 2 hours and maintained in co-culture, vs vehicle, p<0.05
Procedure: To label cellular membranes, pairs of lipophilic fluorescent dyes were used according to the manufacturer's instructions in the following combinations: 1) adherent CAFs were stained 1 μM PKH67 (Sigma-Aldrich), Panc-1 were stained in suspension with 10 μM CellTracker™ orange CMTMR (Thermo Fisher Scientific); 2) CAFs labeled with 0.5 μM BODIPY-cholesterol (Topfluor Cholesterol, #DO-016545, Avanti Polar Lipids) dissolved in 0.1 mM methyl-b-cyclodextrin (#C4555, Sigma) with 2 μM cholesterol (#C8667, Sigma-Aldrich) in MEM media at 37° C. for 30 minutes in suspension; murine or human (Panc-1) PDAC cells were stained in suspension with CPD670 (#65-0840-85, Thermo Fisher Scientific). After labeling, CAFs were co-incubated for indicated time intervals with PDAC cells in 12-well culture plates at ratio of 2:1 in half DMEM media. Co-cultures of CAFs and PDAC cells for 3 minutes on ice were used as negative controls. In experiments assessing the effect of extracellular calcium on trogocytoisis, cells were co-cultured in Phosphate Buffered Saline (PBS) containing calcium and magnesium (D8662, Sigma-Aldrich) or in PBS without calcium and magnesium (D8537, Sigma-Aldrich). After co-cultures, cells were collected and pelleted by centrifugation (5 minutes, 1500 rpm), resuspended in 10% formalin (Sigma) for 10 minutes at RT, washed and re-suspended in PBS/1% BSA. Trogocytosis was measured as the acquisition of CAF-specific fluorescence in PDAC cells by flow cytometry on MACSQuant® VYB Flow Cytometer (Miltenyi Biotec) or FACScan analyzer (BD Biosciences). Analysis of dual staining was done using FlowJo software (10.8.1, BD Biosciences). Live cells were gated based on FSC/SSC parameters, then single cells were gated based on SSC-A/SSC-H.
For interference with trogocytosis, CAFs were pre-treated prior to co-cultures for 2 hours with recombinant label-free 100 nM Annexin-V (#ab157342, Abcam) or 100 nM Zn-DPA (Molecular Targeting Technologies) and subsequently maintained in co-cultures at the same concentrations.

[2] = test system: KPC3 syngeneic pancreatic tumor grafts; assay: Treatment of orthotopic syngeneic KPC3 pancreatic tumors with oral ANO6 inhibitors; assay type: in vivo, C57Bl/6J mice; details: oral gavage 5 days/week for 3 weeks; niclosamide 150 mg/kg, clofazimine 50 mg/kg; vs vehicle, p<0.001
Procedure: (§1) Syngeneic 5×10^5 KPC3 cells were orthotopically injected to the tail of pancreas of anesthetized C57Bl/6J mice. Treatment with ANO6 inhibitors niclosamide or clofazimine commenced on 2 days post-implantation: niclosamide (150 mg/kg of mouse body weight, Cayman #10649), clofazimine (50 mg/kg, MedChem Express), or corn oil (50 mg/kg, Sigma #C8267) as vehicle were given by oral gavages 5 days/week for 3 weeks. Mice were kept under defined-flora pathogen-free conditions. Mice of both genders, equally distributed, were used for the experiments.

[3] = test system: DsRed-tagged KPC3 tumors; assay: In vivo fluorescent LDL (BODIPY-cholesterol) imaging by multiphoton microscopy; design: species or system mice
Procedure: as §1

Molecule	uptake of BODIPY-labeled CAF membranes by KPCN349 cells [1]	uptake of BODIPY-labeled CAF membranes by KPCN349 cells ([1]; listed as bis-Zn-dipicolylamine)	weights of orthotopic syngeneic pancreatic tumors [2]	accumulation of intratumoral vesicles containing BODIPY-cholesterol ([3]; 19 hours post injection, niclosamide vs vehicle)	accumulation of BODIPY-cholesterol from intravenously administered LDL in DsRed-tagged KPC3 cancer cells (intratumoral to peri-tumoral fluorescence) ([3]; niclosamide 150 mg/kg/day, 10, 16 and 19 hours post injection, vehicle tumors showed 6-fold enrichment at 16 hours)
[Zn].c1ccc(CNCc2ccccn2)nc1 [Zn-DPA, zinc-dipicolylamine]	significantly reduced the uptake	antagonizes uptake	–	–	–
CC(C)/N=c1\cc2n(-c3ccc(Cl)cc3)c3ccccc3nc-2cc1Nc1ccc(Cl)cc1 [clofazimine]	–	–	significant reduction of tumor weights	–	–
O=C(Nc1ccc([N+](=O)[O-])cc1Cl)c1cc(Cl)ccc1O [niclosamide]	–	–	significant reduction of tumor weights	dramatically reduced	suppressed accumulation
annexin V: recombinant label-free Annexin-V (#ab157342, Abcam) masking cell surface phosphatidylserine (protein, UniProt P08758 2-320, looked up) Annexin A5: AQVLRGTVTDFPGFDERADAETLRKAMKGLGTDEESILTLLTSRSNAQRQEISAAFKTLFGRDLLDDLKSELTGKFEKLIVALMKPSRLYDAYELKHALKGAGTNEKVLTEIIASRTPEELRAIKQVYEEEYGSSLEDDVVGDTSGYYQRMLVVLLQANRDPDAGIDEAQVEQDAQALFQAGELKWGTDEEKFITIFGTRSVSHLRKVFDKYMTISGFQIEETIDRETSGNLEQLLLAVVKSIRSIPAYLAETLYYAMKGAGTDDHTLIRVMVSRSEIDLFNIRKEFRKNFATSLYSMIKGDTSGDYKKALLLLCGEDD	significantly reduced the uptake; also recorded: antagonizes uptake	–	–	–	–
